Results reported in the METLIN SMRT retention time set (Domingo-Almenara et al. 2019).

Test: gradient 5% acetonitrile 3 min, to 50% in 2 min, to 85% in 15 min, held 3 min, 100 µL/min
Details: column: Zorbax Extend-C18 2.1 x 50 mm; eluents: water / acetonitrile, 0.1% formic acid
Summary of the method: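 Values are retention times taken from adduct peaks that software picked and an analyst inspected. The pure standards were run as mixtures of ~100 molecules on HPLC linked to a quadrupole time-of-flight mass spectrometer, in positive and negative ionization mode. A Zorbax Extend-C18 column (2.1 × 50 mm, 1.8 μm) was used at 100 μL/min with water and acetonitrile, each including 0.1% formic acid.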

| Structure (SMILES) | RP-LC retention time [s] |
| --- | --- |
| O=c1n(Cc2ccccc2)nc2ccc(S(=O)(=O)N3CCOCC3)cn12 | 778 |
| O=C1c2ccccc2C(=O)N1c1nc(-c2ccccc2)cs1 | 864 |
| CCN1C(=O)CCc2cc(NC(=O)C3CCC3)ccc21 | 691 |
| CCOC(=O)c1[nH]c(C)c(CCC(=O)N2CCC(C(=O)NCCc3ccco3)CC2)c1C | 743 |
| Cn1cc(C(=O)Nc2ccc3c(c2)CCC3)c(S(=O)(=O)N2CCCCC2)n1 | 1090 |
| Cc1nnc2ccc(S(=O)(=O)N(Cc3ccc(F)cc3)c3ccc(F)cc3)cn12 | 892 |
| CCC1Oc2ccc(S(=O)(=O)N3CCC(C(=O)Nc4ccc5c(c4)OCO5)CC3)cc2NC1=O (stereo not drawn) | 809 |
| Cc1ccc(NC(=O)C2CCN(C(=O)C3Sc4ccccc4NC3=O)CC2)cc1Cl (stereo not drawn) | 878 |
| Cc1ccc(NC(=O)C2CCCN(c3ccc4cc(S(=O)(=O)N5CCCC5)ccc4n3)C2)cc1C (stereo not drawn) | 870 |
| CCC(=O)N1CCCC(c2nc(CNC(=O)C(C)C)cs2)C1 (stereo not drawn) | 632 |
| CC(C)CN1C(=O)c2cccn2CC1C(=O)NCCN1CCCC1 (stereo not drawn) | 572 |
| C#CCOCC1CCCN(S(=O)(=O)c2cc(C)c(Cl)cc2Cl)C1 (stereo not drawn) | 1130 |
| O=C(CN1C(=O)C(C(=O)N2CCCCC2)Sc2ccccc21)N1CCN(c2ccccc2)CC1 (stereo not drawn) | 907 |
| Cc1c(C(=O)N2CC(C)CC(C)C2)sc2ncn(CC(=O)N3CCC(C)CC3)c(=O)c12 (stereo not drawn) | 891 |
| CCCCC(=O)N1CCN(C2CCN(CCOC)C2=O)CC1 (stereo not drawn) | 535 |
| O=C(Nc1ccc(N2CCOCC2)cc1)c1cn2c(n1)COCC2 | 600 |
| Cc1ccc(N2CN(CC(=O)N3CCCc4ccccc43)S(=O)(=O)c3cccnc32)cc1 | 1030 |
| CN1CCCn2cc(S(=O)(=O)NCc3ccc(F)cc3Cl)cc2C1=O | 707 |
| CCOC(=O)N1CCN(c2c(N3CCN(c4ccccn4)CC3)c(=O)c2=O)CC1 | 562 |
| O=C(NCCC1=CCCCC1)c1ccc2c(c1)NC(=O)C1CCCCN21 (stereo not drawn) | 930 |
| CCCS(=O)(=O)N1CCCCC1c1nc(-c2cccnc2)n[nH]1 (stereo not drawn) | 601 |

| Structure (SMILES) | RP-LC retention time [s] |
| --- | --- |
| Cc1ccc(C)c(S(=O)(=O)N2[C@H]3CC[C@@H]2c2cnc(-c4ccc(F)cc4)nc2C3)c1 | 1270 |
| Cc1cc(Cl)ccc1S(=O)(=O)N1CCC2(CC1)NCCCN=C2NC1CCCC1 | 810 |
| O=C(NC1CCN(c2cc(-c3ccccc3)[nH]n2)C1)c1cccc(Cl)c1 (stereo not drawn) | 763 |
| Cc1nc(-c2ccc(C(=O)N3CCCc4ccccc43)cc2)no1 | 929 |
| Cn1nc(C(=O)NC2CCCN(c3cc(-c4ccc(Cl)cc4)[nH]n3)C2)c2ccccc21 (stereo not drawn) | 935 |
| O=C(CCCN1C(=O)c2cccnc2Sc2ccccc21)N1CCN(c2ccccn2)CC1 | 592 |
| CC1CCN(C(=O)c2ccc(CN3CCN(Cc4ccc(F)cc4)C(=O)C3=O)cc2)CC1 | 783 |
| CS(=O)(=O)N1CCC(C2CCN(Cc3ccccc3C#N)C2)CC1 (stereo not drawn) | 590 |
| Cc1cc(C)cc(Oc2nccn3c(=O)n(CC(=O)NC4CCCCC4)nc23)c1 | 905 |
| CC(=O)N(CCC1(C(C)C)CCOC(C)(C)C1)Cc1ccccc1 (stereo not drawn) | 1000 |
| Cc1cc(C)n(CC(=O)N(C)CC2(C)CCOCC2)n1 | 612 |
| O=C(NC1CCc2ccccc21)C1CCCN(c2ncnc3c2oc2ccccc23)C1 (stereo not drawn) | 816 |
| CC(C)C(=O)Nc1ccc(C(=O)NCCNS(=O)(=O)N(C)C)cc1 | 631 |
| Cc1ccc(F)cc1NS(=O)(=O)c1ccc(-c2nnc(C3CCC3)o2)o1 | 931 |
| O=c1n(Cc2cccc(C(F)(F)F)c2)nc2c(S(=O)(=O)N3CCOCC3)cccn12 | 847 |
| Cc1ccc(-c2noc(CN3N=NC4C(=O)N(c5ccc(C(C)C)cc5)C(=O)C43)n2)cc1 (stereo not drawn) | 1150 |
| CCNC(=O)c1nc(C(=O)NCCC(C)C)cs1 | 771 |
| CC(C)NC(=O)c1n[nH]c2c1CCCC2 | 662 |
| Cc1ccc2c(c1)N(S(C)(=O)=O)CCC(C(=O)Nc1ccc(Cl)cc1)O2 (stereo not drawn) | 1020 |
| CC(Cc1ccco1)NC(=O)C1CCN(S(=O)(=O)c2ccc3c(c2)NC(=O)CO3)CC1 (stereo not drawn) | 726 |
| CCOc1ccc(-c2csc(Cc3nc(-c4ccccc4Cl)no3)n2)cc1 | 1290 |

More lines, now with the values ahead:

| RP-LC retention time [s] | Structure (SMILES) |
| --- | --- |
| 644 | COCc1nc(NCc2ccc(OC)c(OC)c2)ncc1C(=O)O |
| 712 | CC(C)(C)NC(=O)N1CCCCC1c1nncn1-c1ccccc1 (stereo not drawn) |
| 754 | CC1(C(=O)NCc2ccc3c(c2)OCO3)CCN(C(=O)c2ccc(C#N)cc2)CC1 |
| 647 | COc1cccc(C2=NC3(CCN(C(C)C)CC3)NC(c3cc(Br)ccc3O)C2)c1 (stereo not drawn) |
| 658 | COc1ccc(NC(=O)Nc2cccc(-c3ccc(N4CCOCC4)nn3)c2)cc1 |
| 944 | Cc1nc(-c2cn(C)c3ncccc23)sc1C(=O)Nc1cc(F)ccc1F |
| 974 | O=C(Cn1cnc2c(sc3nc(-c4ccccc4)ccc32)c1=O)Nc1ccc2c(c1)OCO2 |
| 941 | CCCOc1ccc(Nc2nc(C(=O)OCC)nc3ccccc23)cc1 |
| 982 | COc1ccc(-c2noc(C3CC(=O)N(c4ccc(C)c(Cl)c4)C3)n2)c(OC)c1 (stereo not drawn) |
| 681 | CCN1C(=O)c2cccnc2Sc2cc(CNC(=O)c3sc(C)nc3C)ccc21 |
| 551 | CCN1CCN(c2c(C(=O)c3ccc(OC)cc3)cnc3cc4c(cc23)OCCO4)CC1 |
| 955 | CCCn1c(-c2cccc(C(=O)NC(C)c3ccc(C)cc3C)c2)nc2cccnc21 (stereo not drawn) |
| 657 | Cc1ccn2cc(-c3ccc(NC(=O)C4CCCCC4)cc3)nc2n1 |
| 601 | COCCn1cc(CC(=O)NC(C)C)c2cccnc21 |
| 768 | CCn1ccc2c(cc(C(=O)Nc3cccc(F)c3)n2C)c1=O |
| 727 | Cc1nc2cc(-c3ccc(Cl)cc3)nn2c(C)c1CCC(=O)N1CCN(c2ccccn2)CC1 |
| 965 | O=C(CN1C(=O)C(O)(c2cccc(F)c2)c2ccccc21)NCCC1=CCCCC1 (stereo not drawn) |
| 642 | O=C(NCc1ccc(N2CCOCC2)nc1)c1ccc(C(F)(F)F)cc1 |
| 776 | Cc1ccc(C)c(NC(=O)C2CCCN(c3nnc(C)c4c(C)n(-c5ccccc5)nc34)C2)c1 (stereo not drawn) |
| 838 | Cc1noc(C)c1C(=O)N1CCCC1c1ccccc1Cl (stereo not drawn) |
| 714 | CCOC(=O)c1c(C)[nH]c(CCC(=O)NCc2ccc(SC)cc2)c1C |
| 859 | Cc1ccc(C)c(N2CCN(c3ccnc(SCC(=O)NCc4ccc5c(c4)OCO5)n3)CC2)c1 |
| 1060 | COC(=O)c1ccc2c(=O)n(Cc3ccc(F)cc3)c(N3CCCC3)nc2c1 |

| RP-LC retention time [s] | Structure (SMILES) |
| --- | --- |
| 762 | O=C(NCCc1csc(C2CCCN(C(=O)C3(c4ccccc4)CC3)C2)n1)C1CC1 (stereo not drawn) |
| 735 | CCCn1cnc2ccc(-c3noc(C4CC(=O)N(c5ccc(C)cc5)C4)n3)cc21 (stereo not drawn) |
| 763 | Cc1ccc(-c2ccc(N3CCCC(C(=O)NCc4ccc5c(c4)OCO5)C3)nn2)cc1C (stereo not drawn) |
| 722 | O=S(=O)(c1ccc(F)cc1)N1CCC2(CC1)NCCN=C2NCc1ccc(Cl)cc1 |
| 839 | COc1ccc(OC)c(S(=O)(=O)NCc2c(-c3ccccc3)nc3sc(C)nn23)c1 |
| 638 | COc1ccc(-c2c(C(=O)NCc3cccnc3)nn3c(C)cc(C)nc23)cc1S(=O)(=O)N1CCCC1 |
| 1140 | Cc1csc(-c2cc(S(=O)(=O)Nc3ccc(Cl)cc3C)c(C)s2)n1 |
| 651 | COc1ccc(NC(=O)C2(C)Oc3cccnc3NC2=O)cc1OC (stereo not drawn) |
| 564 | CN(CC(=O)NCc1ccncc1)c1nc2c(Cl)cccc2s1 |
| 665 | COc1ccccc1NC(=O)C1=C(C)NC(=O)NC1c1cccs1 (stereo not drawn) |
| 760 | COc1cc2nc(C(=O)N3CCCCC3)cc(Nc3cc(C)cc(C)c3)c2cc1OC |
| 840 | COc1ccc(C)cc1NC(=O)N1CCCC1c1c(C)noc1C (stereo not drawn) |
| 787 | CCc1nnc(-c2cccn2CC(=O)Nc2cc(OC)cc(OC)c2)o1 |
| 568 | Cc1c(C(=O)N2CCC(C(=O)NC3CCN(Cc4ccccc4)CC3)CC2)sc2nc[nH]c(=O)c12 |
| 826 | CCOC(=O)c1c(C)oc2nc(C)nc(NCCCN3CCN(c4ccccc4)CC3)c12 |
| 824 | Cc1cccc(CNC(=O)c2ccc3c(c2)nc2n3CCN(C3CCCCC3)C2=O)c1 |
| 978 | Cc1cccc(OCCc2noc(C3CCN(S(=O)(=O)N(C)C)C3)n2)c1 (stereo not drawn) |
| 849 | COc1ccc(-n2c(=O)n(C)c(=O)c3cc(C(=O)NCc4ccccc4F)cnc32)cc1 |
| 740 | Cc1nnsc1C(=O)Nc1nnc(Cc2ccc3c(c2)OCO3)o1 |
| 988 | CCS(=O)(=O)c1ccc2c(c1)N(Cc1nc(-c3cccc(Br)c3)no1)C(=O)CO2 |
| 643 | O=C(Cn1c(=O)c(=O)n(Cc2ccccc2)c2ncccc21)NCc1ccccn1 |
| 740 | COc1ccc(C2Cn3cnc(C(=O)N4CCC(C(=O)Nc5ccc(C)cc5C)CC4)c3CO2)cc1 (stereo not drawn) |
| 980 | Cc1ccc(N2CC(c3noc(-c4ccc(N(C)C)cc4)n3)CC2=O)cc1 (stereo not drawn) |
